Assays:
Assay type in all cases: biochemical
PI3Kα = target: T1, PI3Kα (Homo sapiens, UniProt P42336); assay: In vitro determination of the PI3K enzyme inhibitory activity in the cell free assay (ADP-Glo Kinase Assay), PI3Kα; settings: ATP 50 μM, read-out: PI3K alpha inhibition
T1 construct: purchased Millipore Ltd (Billerica, Mass.)
Procedure: (§1) In vitro Determination of the PI3K Enzyme Inhibitory Activity in the Cell Free Assay
(§2) Human recombinant proteins PI3Kα, PI3Kβ, PI3Kγ and PI3Kδ were purchased from Millipore Ltd (Billerica, Mass.). Compounds were dissolved at 0.5 mM in DMSO and were tested at different concentrations for their activity against PI3Ks using the ADP-Glo™ Kinase Assay (Promega, Madison Wis.) according to the manufacturer's instructions.
(§3) Briefly, the kinase reactions were performed in 384-well white plates (Greiner Bio-One GmbH, Frickenhausen). Each well was loaded with 0.1 μl of test compounds and 2.5 μl of 2× reaction buffer (40 mM Tris pH7.5, 0.5 mM EGTA, 0.5 mM Na3VO4, 5 mM β-glycerophosphate, 0.1 mg/ml BSA, 1 mM DTT), containing 50 μM PI and PS substrates (L-α-phosphatidylinositol sodium salt and L-α-phosphatidyl-L-serine, Sigma-Aldrich, St. Louis Mo.) and the PI3K recombinant proteins (PI3Kγ 0.25 ng/μl, PI3Kδ 1 ng/μl, PI3Kα 0.125 ng/μl, PI3Kβ 1 ng/μl).
(§4) The reactions were started by adding 2.5 μl of 2×ATP solution to each well (final concentrations: PI3Kγ ATP 30 μM; PI3Kδ ATP 80 μM; PI3KαATP 50 μM; PI3Kβ ATP 100 μM) and incubated for 60 min at room temperature. Subsequently, each kinase reaction was incubated for 40 min with 5 μl ADP-Glo™ Reagent, allowing depletion of unconsumed ATP. Then, the Kinase Detection Reagent (10 μl) was added in each well to convert ADP to ATP and to allow the newly synthesized ATP to be measured using a luciferase/luciferin reaction. Following 60 min incubation, the luminescence signal was measured using a Wallac EnVision® multilabel reader (PerkinElmer, Waltham Mass.).
(§5) Curve fitting and IC50 calculation were carried out using a four-parameter logistic model in XLfit (IDBS, Guilford, UK) for Microsoft Excel (Microsoft, Redmont, Wash.).

PI3Kβ = target: T2, PI3Kβ (Homo sapiens, UniProt P42338); assay: In vitro determination of the PI3K enzyme inhibitory activity in the cell free assay (ADP-Glo Kinase Assay), PI3Kβ; settings: ATP 100 μM, read-out: PI3K beta inhibition
T2 construct: purchased Millipore Ltd (Billerica, Mass.)
T2 sequence (P42338 whole entry): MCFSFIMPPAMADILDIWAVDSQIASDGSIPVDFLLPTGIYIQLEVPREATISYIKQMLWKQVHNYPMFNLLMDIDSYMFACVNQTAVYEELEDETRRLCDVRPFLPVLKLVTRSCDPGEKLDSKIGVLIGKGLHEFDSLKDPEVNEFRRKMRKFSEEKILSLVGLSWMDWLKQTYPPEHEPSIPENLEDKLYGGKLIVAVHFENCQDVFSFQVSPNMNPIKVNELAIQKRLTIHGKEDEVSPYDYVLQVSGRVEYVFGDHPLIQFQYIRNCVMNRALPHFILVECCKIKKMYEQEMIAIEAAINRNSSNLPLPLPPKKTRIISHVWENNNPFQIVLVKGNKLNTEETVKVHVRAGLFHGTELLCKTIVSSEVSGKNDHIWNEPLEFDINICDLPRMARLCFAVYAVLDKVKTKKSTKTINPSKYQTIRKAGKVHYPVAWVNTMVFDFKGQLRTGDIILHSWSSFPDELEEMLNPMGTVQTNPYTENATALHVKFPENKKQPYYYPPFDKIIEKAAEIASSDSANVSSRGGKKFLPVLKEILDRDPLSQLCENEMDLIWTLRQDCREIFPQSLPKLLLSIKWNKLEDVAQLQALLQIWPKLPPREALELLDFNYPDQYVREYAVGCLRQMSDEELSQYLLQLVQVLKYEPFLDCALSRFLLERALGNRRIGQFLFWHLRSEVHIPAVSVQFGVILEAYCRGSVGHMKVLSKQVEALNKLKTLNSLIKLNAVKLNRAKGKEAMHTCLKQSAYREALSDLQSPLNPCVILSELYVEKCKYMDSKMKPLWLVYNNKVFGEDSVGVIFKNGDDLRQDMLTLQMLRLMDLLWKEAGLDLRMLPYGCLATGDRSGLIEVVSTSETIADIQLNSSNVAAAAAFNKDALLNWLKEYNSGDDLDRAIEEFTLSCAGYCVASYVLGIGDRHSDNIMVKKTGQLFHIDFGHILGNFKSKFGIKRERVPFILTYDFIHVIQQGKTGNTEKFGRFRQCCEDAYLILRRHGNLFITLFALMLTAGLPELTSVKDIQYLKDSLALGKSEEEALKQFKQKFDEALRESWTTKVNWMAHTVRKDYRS
T2 sequence (P27986 whole entry partner): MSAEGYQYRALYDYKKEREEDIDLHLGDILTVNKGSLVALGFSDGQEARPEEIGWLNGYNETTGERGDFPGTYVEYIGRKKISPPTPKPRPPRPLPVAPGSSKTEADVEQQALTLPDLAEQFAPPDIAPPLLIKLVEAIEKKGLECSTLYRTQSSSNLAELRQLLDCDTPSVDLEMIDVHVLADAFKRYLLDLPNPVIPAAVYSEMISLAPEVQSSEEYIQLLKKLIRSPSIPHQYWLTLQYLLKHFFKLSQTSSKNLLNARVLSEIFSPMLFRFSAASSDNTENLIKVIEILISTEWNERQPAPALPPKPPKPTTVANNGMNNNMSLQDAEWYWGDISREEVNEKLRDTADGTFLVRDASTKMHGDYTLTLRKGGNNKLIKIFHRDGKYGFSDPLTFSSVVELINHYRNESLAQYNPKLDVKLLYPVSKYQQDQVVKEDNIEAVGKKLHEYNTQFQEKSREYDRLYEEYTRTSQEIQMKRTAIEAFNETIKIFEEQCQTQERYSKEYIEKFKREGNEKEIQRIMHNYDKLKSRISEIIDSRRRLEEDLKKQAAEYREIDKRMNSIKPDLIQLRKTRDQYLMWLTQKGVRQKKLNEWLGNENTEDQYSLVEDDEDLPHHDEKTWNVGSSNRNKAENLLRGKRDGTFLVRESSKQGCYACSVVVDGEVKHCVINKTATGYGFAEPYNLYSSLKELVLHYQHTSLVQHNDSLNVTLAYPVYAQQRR
Procedure: as §1, §2, §3, §4, §5

PI3Kγ = target: T3, PI3Kγ (Homo sapiens, UniProt P48736); assay: In vitro determination of the PI3K enzyme inhibitory activity in the cell free assay (ADP-Glo Kinase Assay), PI3Kγ; settings: ATP 30 μM, read-out: PI3K gamma inhibition
T3 construct: purchased Millipore Ltd (Billerica, Mass.)
T3 sequence (P48736 whole entry): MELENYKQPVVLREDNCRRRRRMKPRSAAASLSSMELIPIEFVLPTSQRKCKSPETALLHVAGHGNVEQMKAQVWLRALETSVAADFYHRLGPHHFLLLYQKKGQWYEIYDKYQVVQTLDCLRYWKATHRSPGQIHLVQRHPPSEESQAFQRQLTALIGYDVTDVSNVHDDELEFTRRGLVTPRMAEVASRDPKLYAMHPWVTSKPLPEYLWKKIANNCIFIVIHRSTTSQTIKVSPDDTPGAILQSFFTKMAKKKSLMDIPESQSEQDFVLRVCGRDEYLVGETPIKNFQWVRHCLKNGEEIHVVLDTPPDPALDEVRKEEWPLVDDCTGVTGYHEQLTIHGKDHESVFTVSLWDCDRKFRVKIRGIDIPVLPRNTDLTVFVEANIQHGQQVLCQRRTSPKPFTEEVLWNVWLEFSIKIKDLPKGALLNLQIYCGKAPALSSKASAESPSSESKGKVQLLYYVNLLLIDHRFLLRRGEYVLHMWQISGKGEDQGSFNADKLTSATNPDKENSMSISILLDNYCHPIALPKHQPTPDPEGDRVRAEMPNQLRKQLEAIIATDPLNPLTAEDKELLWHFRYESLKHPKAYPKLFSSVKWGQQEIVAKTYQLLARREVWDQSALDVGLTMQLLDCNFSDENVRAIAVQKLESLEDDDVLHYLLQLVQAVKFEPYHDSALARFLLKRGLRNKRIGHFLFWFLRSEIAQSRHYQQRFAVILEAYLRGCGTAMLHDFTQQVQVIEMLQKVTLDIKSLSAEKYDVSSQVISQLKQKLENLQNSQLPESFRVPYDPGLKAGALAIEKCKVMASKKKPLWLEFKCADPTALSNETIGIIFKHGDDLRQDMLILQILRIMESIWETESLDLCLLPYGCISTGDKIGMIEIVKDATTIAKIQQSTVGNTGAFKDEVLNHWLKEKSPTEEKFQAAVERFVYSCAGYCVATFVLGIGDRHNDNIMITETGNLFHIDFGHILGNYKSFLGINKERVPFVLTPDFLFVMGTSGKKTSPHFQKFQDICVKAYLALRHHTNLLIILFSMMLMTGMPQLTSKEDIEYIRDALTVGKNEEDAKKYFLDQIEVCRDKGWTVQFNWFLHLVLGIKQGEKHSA
Procedure: as §1, §2, §3, §4, §5

PI3Kδ = target: T4, PI3Kδ (Homo sapiens, UniProt O00329); assay: In vitro determination of the PI3K enzyme inhibitory activity in the cell free assay (ADP-Glo Kinase Assay), PI3Kδ; settings: ATP 80 μM, read-out: PI3K delta inhibition
T4 construct: purchased Millipore Ltd (Billerica, Mass.)
T4 sequence (O00329 whole entry): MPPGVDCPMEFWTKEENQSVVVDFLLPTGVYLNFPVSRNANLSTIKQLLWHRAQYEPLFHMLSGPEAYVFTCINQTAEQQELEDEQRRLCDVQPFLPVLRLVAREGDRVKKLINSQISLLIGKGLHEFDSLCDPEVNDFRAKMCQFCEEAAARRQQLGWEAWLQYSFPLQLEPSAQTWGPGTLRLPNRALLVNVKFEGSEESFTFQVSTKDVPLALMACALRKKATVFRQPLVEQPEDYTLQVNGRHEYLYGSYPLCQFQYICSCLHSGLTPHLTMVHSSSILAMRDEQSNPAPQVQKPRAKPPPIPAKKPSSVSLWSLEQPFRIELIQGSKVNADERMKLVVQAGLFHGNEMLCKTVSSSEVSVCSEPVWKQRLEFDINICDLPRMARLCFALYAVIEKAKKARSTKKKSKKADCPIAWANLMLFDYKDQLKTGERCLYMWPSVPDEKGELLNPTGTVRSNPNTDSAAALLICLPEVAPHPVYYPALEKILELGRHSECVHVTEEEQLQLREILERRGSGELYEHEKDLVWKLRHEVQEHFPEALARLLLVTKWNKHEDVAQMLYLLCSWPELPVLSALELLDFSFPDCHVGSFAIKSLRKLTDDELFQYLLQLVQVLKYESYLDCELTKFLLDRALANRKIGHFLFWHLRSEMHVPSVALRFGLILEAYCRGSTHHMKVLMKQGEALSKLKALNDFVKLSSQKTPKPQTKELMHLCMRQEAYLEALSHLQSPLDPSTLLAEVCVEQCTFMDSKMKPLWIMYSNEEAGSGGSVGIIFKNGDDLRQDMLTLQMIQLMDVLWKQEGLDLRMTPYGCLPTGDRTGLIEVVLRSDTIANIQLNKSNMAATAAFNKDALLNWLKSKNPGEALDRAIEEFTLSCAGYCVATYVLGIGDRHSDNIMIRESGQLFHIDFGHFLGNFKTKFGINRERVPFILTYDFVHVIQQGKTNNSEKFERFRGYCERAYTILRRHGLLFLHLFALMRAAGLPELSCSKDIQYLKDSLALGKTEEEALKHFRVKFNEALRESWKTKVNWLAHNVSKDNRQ
T4 sequence (P27986 whole entry partner): as the sequence (P27986 whole entry partner) above
Procedure: as §1, §2, §3, §4, §5

T1 sequence (P42336 whole entry): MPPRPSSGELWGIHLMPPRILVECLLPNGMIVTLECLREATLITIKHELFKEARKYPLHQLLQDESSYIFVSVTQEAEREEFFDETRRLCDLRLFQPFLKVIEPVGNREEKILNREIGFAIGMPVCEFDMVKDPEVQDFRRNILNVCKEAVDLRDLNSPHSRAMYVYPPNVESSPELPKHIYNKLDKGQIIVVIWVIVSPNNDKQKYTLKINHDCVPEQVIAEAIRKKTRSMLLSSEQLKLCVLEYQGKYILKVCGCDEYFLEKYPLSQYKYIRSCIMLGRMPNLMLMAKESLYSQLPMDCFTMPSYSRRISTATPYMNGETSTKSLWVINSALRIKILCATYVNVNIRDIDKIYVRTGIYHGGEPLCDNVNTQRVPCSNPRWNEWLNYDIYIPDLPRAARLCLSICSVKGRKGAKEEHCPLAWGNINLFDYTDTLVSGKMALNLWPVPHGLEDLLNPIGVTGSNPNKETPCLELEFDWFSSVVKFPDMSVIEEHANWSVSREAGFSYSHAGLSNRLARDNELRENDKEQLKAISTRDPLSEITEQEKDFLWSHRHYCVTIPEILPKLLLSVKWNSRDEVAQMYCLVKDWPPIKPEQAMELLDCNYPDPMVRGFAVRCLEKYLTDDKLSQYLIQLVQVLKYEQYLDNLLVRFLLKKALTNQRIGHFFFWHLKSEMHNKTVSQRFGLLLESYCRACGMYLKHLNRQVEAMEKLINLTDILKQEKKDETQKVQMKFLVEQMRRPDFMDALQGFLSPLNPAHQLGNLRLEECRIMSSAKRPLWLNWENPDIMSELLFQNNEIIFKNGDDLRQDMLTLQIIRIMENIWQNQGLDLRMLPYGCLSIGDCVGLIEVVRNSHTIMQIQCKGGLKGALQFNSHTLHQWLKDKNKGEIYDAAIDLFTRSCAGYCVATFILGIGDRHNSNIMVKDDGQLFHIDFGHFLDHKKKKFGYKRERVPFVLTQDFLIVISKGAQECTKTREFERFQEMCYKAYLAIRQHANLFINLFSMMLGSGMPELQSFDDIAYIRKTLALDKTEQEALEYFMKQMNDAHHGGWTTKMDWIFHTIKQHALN
T1 sequence (P27986 whole entry partner): as the sequence (P27986 whole entry partner) above

SMILES | IC50 (PI3Kα) [nM] | IC50 (PI3Kβ) [nM] | IC50 (PI3Kγ) [nM] | IC50 (PI3Kδ) [nM]
C[C@H](c1c(C#N)c2ccccn2c1-c1cccc(CN(C)C)c1)n1nc(-c2cc(O)cc(F)c2)c2c(N)ncnc21 (single isomer, unassigned) [Example 127a, 2-{1-[4-amino-3-(3-fluoro-5-hydroxyphenyl)-1H-pyrazolo[3,4-d]pyrimidin-1-yl]ethyl}-3-{3-[(dimethylamino)methyl]phenyl}indolizine-1-carbonitrile] | 10 to 1000 | 10 to 1000 | 10 to 1000 | < 10
C[C@H](c1c(C#N)c2ccccn2c1-c1cccc(CN(C)C)c1)n1nc(-c2cc(O)cc(F)c2)c2c(N)ncnc21 (single isomer, unassigned) [Example 127b, 2-{1-[4-amino-3-(3-fluoro-5-hydroxyphenyl)-1H-pyrazolo[3,4-d]pyrimidin-1-yl]ethyl}-3-{3-[(dimethylamino)methyl]phenyl}indolizine-1-carbonitrile] | > 1000 | > 1000 | > 1000 | < 10
CC(c1cc2ccccn2c1-c1ccn(CCN(C)C)c(=O)c1)n1nc(-c2cc(O)cc(F)c2)c2c(N)ncnc21 (single isomer, unassigned) [Example 133a, 4-(2-{1-[4-amino-3-(3-fluoro-5-hydroxyphenyl)-1H-pyrazolo[3,4-d]pyrimidin-1-yl]ethyl}indolizin-3-yl)-1-[2-(dimethylamino)ethyl]-1,2-dihydropyridin-2-one] | > 1000 | > 1000 | > 1000 | 10 to 1000
CC(c1cc2ccccn2c1-c1ccn(CCN(C)C)c(=O)c1)n1nc(-c2cc(O)cc(F)c2)c2c(N)ncnc21 (single isomer, unassigned) [Example 133b, 4-(2-{1-[4-amino-3-(3-fluoro-5-hydroxyphenyl)-1H-pyrazolo[3,4-d]pyrimidin-1-yl]ethyl}indolizin-3-yl)-1-[2-(dimethylamino)ethyl]-1,2-dihydropyridin-2-one] | 10 to 1000 | 10 to 1000 | 10 to 1000 | < 10
Nc1ncnc2c1ncn2Cc1cc2ccccn2c1-c1ccccc1 [Example 1, 9-[(3-phenylindolizin-2-yl)methyl]-9H-purin-6-amine] | > 1000 | > 1000 | > 1000 | > 1000
Nc1ncn(Cc2cc3ccccn3c2-c2ccccc2)c2ncnc1-2 [Example 2, 3-[(3-phenylindolizin-2-yl)methyl]-3H-purin-6-amine] | > 1000 | > 1000 | > 1000 | > 1000
Nc1ncnc2c1ncn2Cc1cc2ccccn2c1-c1ccccn1 [Example 3, 9-{[3-(pyridin-2-yl)indolizin-2-yl]methyl}-9H-purin-6-amine] | > 1000 | > 1000 | > 1000 | > 1000
Nc1ncnc2c1ncn2Cc1cc2ccccn2c1-c1cccc(F)c1 [Example 4, 9-{[3-(3-fluorophenyl)indolizin-2-yl]methyl}-9H-purin-6-amine] | > 1000 | > 1000 | > 1000 | 10 to 1000
Nc1ncn(Cc2cc3ccccn3c2-c2cccc(F)c2)c2ncnc1-2 [Example 5, 3-{[3-(3-fluorophenyl)indolizin-2-yl]methyl}-3H-purin-6-amine] | > 1000 | > 1000 | > 1000 | > 1000
Nc1ncnc2c1ncn2Cc1cc2ccccn2c1-c1ccccc1F [Example 6, 9-{[3-(2-fluorophenyl)indolizin-2-yl]methyl}-9H-purin-6-amine] | > 1000 | > 1000 | > 1000 | > 1000
Cc1ccccc1-c1c(Cn2cnc3c(N)ncnc32)cc2ccccn12 [Example 7, 9-{[3-(2-methylphenyl)indolizin-2-yl]methyl}-9H-purin-6-amine] | > 1000 | > 1000 | > 1000 | > 1000
Cc1ccccc1-c1c(Cn2cnc(N)c3ncnc2-3)cc2ccccn12 [Example 8, 3-{[3-(2-methylphenyl)indolizin-2-yl]methyl}-3H-purin-6-amine] | > 1000 | > 1000 | > 1000 | > 1000
Nc1ncnc2c1ncn2Cc1cc2ccccn2c1 [Example 9, 9-(indolizin-2-ylmethyl)-9H-purin-6-amine] | > 1000 | > 1000 | > 1000 | > 1000
Nc1ncnc2c1ncn2Cc1cn2ccccc2c1-c1ccccc1 [Example 10, 9-[(1-phenylindolizin-2-yl)methyl]-9H-purin-6-amine] | > 1000 | > 1000 | > 1000 | > 1000
Nc1ncnc2c1ncn2Cc1cn2ccccc2c1-c1cccc(F)c1 [Example 11, 9-{[1-(3-fluorophenyl)indolizin-2-yl]methyl}-9H-purin-6-amine] | > 1000 | > 1000 | > 1000 | > 1000
Cc1ccccc1-c1c(Cn2cnc3c(N)ncnc32)cn2ccccc12 [Example 12, 9-{[1-(2-methylphenyl)indolizin-2-yl]methyl}-9H-purin-6-amine] | > 1000 | > 1000 | > 1000 | > 1000
c1ccc(-c2c(CNc3ncnc4[nH]cnc34)cc3ccccn23)cc1 [Example 13, N-[(3-phenylindolizin-2-yl)methyl]-9H-purin-6-amine] | > 1000 | > 1000 | > 1000 | > 1000
c1ccc(-c2c(CNc3ncnc4[nH]cnc34)cc3ccccn23)nc1 [Example 14, N-{[3-(pyridin-2-yl)indolizin-2-yl]methyl}-9H-purin-6-amine] | > 1000 | > 1000 | > 1000 | > 1000
Fc1cccc(-c2c(CNc3ncnc4[nH]cnc34)cc3ccccn23)c1 [Example 15, N-{[3-(3-fluorophenyl)indolizin-2-yl]methyl}-9H-purin-6-amine] | > 1000 | > 1000 | > 1000 | > 1000
Fc1ccccc1-c1c(CNc2ncnc3[nH]cnc23)cc2ccccn12 [Example 16, N-{[3-(2-fluorophenyl)indolizin-2-yl]methyl}-9H-purin-6-amine] | > 1000 | > 1000 | > 1000 | > 1000
c1ccc(-c2c(CNc3ncnc4[nH]cnc34)cn3ccccc23)cc1 [Example 17, N-[(1-phenylindolizin-2-yl)methyl]-9H-purin-6-amine] | > 1000 | > 1000 | > 1000 | > 1000
Fc1cccc(-c2c(CNc3ncnc4[nH]cnc34)cn3ccccc23)c1 [Example 18, N-{[1-(3-fluorophenyl)indolizin-2-yl]methyl}-9H-purin-6-amine] | > 1000 | > 1000 | > 1000 | 10 to 1000
Cc1ccccc1-c1c(CNc2ncnc3[nH]cnc23)cn2ccccc12 [Example 19, N-{[1-(2-methylphenyl)indolizin-2-yl]methyl}-9H-purin-6-amine] | > 1000 | > 1000 | > 1000 | > 1000
c1ccc(-c2c(CNc3ncnc4[nH]cnc34)cn3ccccc23)nc1 [Example 20, N-{[1-(pyridin-2-yl)indolizin-2-yl]methyl}-9H-purin-6-amine] | > 1000 | > 1000 | > 1000 | 10 to 1000
c1ccn2cc(CNc3ncnc4[nH]cnc34)cc2c1 [Example 21, N-(indolizin-2-ylmethyl)-9H-purin-6-amine] | > 1000 | 10 to 1000 | > 1000 | 10 to 1000
N#Cc1c(N)ncnc1NCc1cc2ccccn2c1-c1ccccc1 [Example 22, 4-amino-6-{[(3-phenylindolizin-2-yl)methyl]amino}pyrimidine-5-carbonitrile] | > 1000 | > 1000 | > 1000 | 10 to 1000
N#Cc1c(N)ncnc1NCc1cc2ccccn2c1-c1ccccn1 [Example 23, 4-amino-6-({[3-(pyridin-2-yl)indolizin-2-yl]methyl}amino)pyrimidine-5-carbonitrile] | > 1000 | > 1000 | > 1000 | 10 to 1000
N#Cc1c(N)ncnc1NCc1cc2ccccn2c1-c1cccc(F)c1 [Example 24, 4-amino-6-({[3-(3-fluorophenyl)indolizin-2-yl]methyl}amino)pyrimidine-5-carbonitrile] | > 1000 | > 1000 | > 1000 | 10 to 1000

From patent publication US9527869B2, “Indolizine derivatives as phoshoinositide 3-kinases inhibitors” (CHIESI FARMACEUTICI S.P.A., priority 2014, dated 2016)
